Target: T1, cPLA2 (Homo sapiens, UniProt P47712)
T1 sequence (P47712 1-749): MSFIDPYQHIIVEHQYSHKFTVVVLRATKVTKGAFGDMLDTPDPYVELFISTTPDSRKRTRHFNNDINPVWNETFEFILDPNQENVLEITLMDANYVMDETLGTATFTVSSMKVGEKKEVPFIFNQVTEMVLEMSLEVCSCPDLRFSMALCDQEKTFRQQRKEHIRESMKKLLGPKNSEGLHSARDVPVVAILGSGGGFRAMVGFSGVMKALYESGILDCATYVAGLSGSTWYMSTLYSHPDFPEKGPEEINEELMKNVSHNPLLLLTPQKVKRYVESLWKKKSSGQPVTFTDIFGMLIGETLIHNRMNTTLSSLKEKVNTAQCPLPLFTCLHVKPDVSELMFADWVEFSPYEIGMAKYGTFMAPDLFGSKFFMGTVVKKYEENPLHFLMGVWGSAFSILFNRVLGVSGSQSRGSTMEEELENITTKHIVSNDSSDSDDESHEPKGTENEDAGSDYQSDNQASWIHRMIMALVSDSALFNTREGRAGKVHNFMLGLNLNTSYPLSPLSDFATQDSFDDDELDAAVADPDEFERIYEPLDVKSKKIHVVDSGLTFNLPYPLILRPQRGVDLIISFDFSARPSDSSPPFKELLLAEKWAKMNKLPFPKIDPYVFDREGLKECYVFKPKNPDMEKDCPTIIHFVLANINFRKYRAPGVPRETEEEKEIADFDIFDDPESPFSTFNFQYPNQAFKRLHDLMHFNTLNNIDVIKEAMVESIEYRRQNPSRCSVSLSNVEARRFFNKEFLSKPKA
Assay: cPLA2 inhibitory activity
Type: biochemical
Details: for IC50: 1-palmitoyl-2-[14C]-arachidonoyl-sn-glycero-3-phosphocholine liposomes, 15 min at 37° C.; for IC60: 0.25 h, Table 10, same assay
Protocol: The compounds of the present invention were tested for the cPLA2 inhibitory activity according to the method disclosed in […]. Roberts, […], and J. E. Putnam, J. Biol. Chem., 1991, 266, 5268-5272 as outlined below. […] The reaction mixture includes 50 mM HEPES buffer (pH 7.5), 1 mM calcium chloride, 150 mM sodium chloride, 0.1 mg/ml bovine serum albumin, and 1.7 mM dithiothreitol. To the reaction mixture was added the compound of the present invention and the substrate solution. The reaction was allowed to start by adding an enzyme and continued for 15 min at 37° C. The fatty acids released by the reaction were extracted by the method described in V. P. Dole, and H. Meinertz, J. Biol. Chem., 1960, 235, 2595-2599 and its radiation activity was measured on a liquid scintillation counter. Control was obtained by conducting the experiment in the same manner except that a compound of the present invention was not added.

SMILES | IC50 | IC60
CC(C)CN(C(c1ccccc1)c1ccccc1)[C@@H]1C[C@@H](CNC(=O)c2ccc(/C=C3\SC(=O)NC3=O)cc2)N(C(=O)c2ccccc2C(=O)c2ccccc2)C1 [Compound A-1] | 33 nM | 
CC(C)CN(C1CC(CNC(=O)c2ccc(C=C3SC(=O)NC3=O)cc2)N(C(=O)c2ccccc2C(=O)c2ccccc2F)C1)C(c1ccccc1)c1ccccc1 (stereo not shown) [Compound A-2] | 14 nM | 
CC(C)CN(C1CC(CNC(=O)c2ccc(C=C3SC(=O)NC3=O)cc2)N(C(=O)c2ccccc2C(=O)c2cccc(F)c2)C1)C(c1ccccc1)c1ccccc1 (stereo not shown) [Compound A-3] | 94 nM | 
CC(C)CN(C1CC(CNC(=O)c2ccc(C=C3SC(=O)NC3=O)cc2)N(C(=O)c2ccccc2C(=O)c2c(F)cccc2F)C1)C(c1ccccc1)c1ccccc1 (stereo not shown) [Compound A-5] | 7.4 nM | 
CC(C)CN(C1CC(CNC(=O)c2ccc(C=C3SC(=O)NC3=O)cc2)N(C(=O)c2cccc(F)c2C(=O)c2ccc(F)cc2F)C1)C(c1ccccc1)c1ccccc1 (stereo not shown) [Compound A-6] | 4.5 nM | 
CC(C)CN(C1CC(CNC(=O)c2ccc(C=C3SC(=O)NC3=O)cc2)N(C(=O)c2c(F)cccc2C(=O)c2ccc(F)cc2F)C1)C(c1ccccc1)c1ccccc1 (stereo not shown) [Compound A-7] | 5.1 nM | 
CC(C)CN(C1CC(CNC(=O)c2ccc(C=C3SC(=O)NC3=O)cc2)N(C(=O)c2ccc(F)cc2C(=O)c2ccc(F)cc2F)C1)C(c1ccccc1)c1ccccc1 (stereo not shown) [Compound A-8] | 5 nM | 
CC(C)CN(C1CC(CNC(=O)c2ccc(C=C3SC(=O)NC3=O)cc2)N(C(=O)c2cc(F)ccc2C(=O)c2ccc(F)cc2F)C1)C(c1ccccc1)c1ccccc1 (stereo not shown) [Compound A-9] | 2 nM | 
COc1ccc(C(=O)c2ccc(F)cc2F)c(C(=O)N2CC(N(CC(C)C)C(c3ccccc3)c3ccccc3)CC2CNC(=O)c2ccc(C=C3SC(=O)NC3=O)cc2)c1 (stereo not shown) [Compound A-10] | 29 nM | 
CC(C)CN(C1CC(CNC(=O)c2ccc(C=C3SC(=O)NC3=O)cc2)N(C(=O)c2cc(Cl)ccc2C(=O)c2ccc(F)cc2F)C1)C(c1ccccc1)c1ccccc1 (stereo not shown) [Compound A-11] | 5.2 nM | 
CC(C)CN(C1CC(CNC(=O)c2ccc(C=C3SC(=O)NC3=O)s2)N(C(=O)c2ccccc2C(=O)c2ccc(F)cc2F)C1)C(c1ccccc1)c1ccccc1 (stereo not shown) [Compound A-12] | 2.1 nM | 
CC(C)CN(Cc1ccccc1-c1ccccc1)[C@@H]1C[C@@H](CNC(=O)/C=C/c2ccc(/C=C3\SC(=O)NC3=O)cc2)N(C(=O)c2ccccc2C(=O)c2ccc(F)cc2F)C1 [Compound A-14] | 1.8 nM | 
O=C(/C=C/c1ccc(/C=C2\SC(=O)NC2=O)cc1)NC[C@@H]1C[C@@H](N(Cc2ccccc2)C(c2ccccc2)c2ccccc2)CN1C(=O)c1ccccc1C(=O)c1ccc(F)cc1F [Compound A-17] | 3.7 nM | 
O=C1NC(=O)C(=Cc2ccc(C(=O)NCC3CC(SCc4c(-c5ccccc5)cccc4-c4ccccc4)CN3C(=O)c3ccccc3C(=O)c3ccc(F)cc3F)cc2)S1 (stereo not shown) [Compound B-2] | 20 nM | 
COc1ccc(C(SC2CC(CNC(=O)c3ccc(C=C4SC(=O)NC4=O)cc3)N(C(=O)c3ccccc3C(=O)c3ccc(F)cc3F)C2)(c2ccccc2)c2ccc(OC)cc2)cc1 (stereo not shown) [Compound B-3] | 9 nM | 
O=C1NC(=O)C(=Cc2ccc(C(=O)NCC3CC(SC(c4ccccc4)(c4cccc(F)c4)c4cccc(F)c4)CN3C(=O)c3ccccc3C(=O)c3ccc(F)cc3F)cc2)S1 (stereo not shown) [Compound B-4] | 2.6 nM | 
O=C1NC(=O)C(=Cc2ccc(C(=O)NCC3CC(SC(c4ccccc4)(c4ccccc4)c4cc(F)cc(F)c4)CN3C(=O)c3ccccc3C(=O)c3ccc(F)cc3F)cc2)S1 (stereo not shown) [Compound B-5] | 2.7 nM | 
Cc1cc(C)cc(C(SC2CC(CNC(=O)c3ccc(C=C4SC(=O)NC4=O)cc3)N(C(=O)c3ccccc3C(=O)c3ccc(F)cc3F)C2)(c2ccccc2)c2ccccc2)c1 (stereo not shown) [Compound B-6] | 1.3 nM | 
Cc1cccc(C(SC2CC(CNC(=O)c3ccc(C=C4SC(=O)NC4=O)cc3)N(C(=O)c3ccccc3C(=O)c3ccc(F)cc3F)C2)(c2ccccc2)c2cccc(C)c2)c1 (stereo not shown) [Compound B-7] |  | 1.4 nM
O=C1NC(=O)C(Cc2ccc(C(=O)NCC3CC(SC(c4ccccc4)(c4ccccc4)c4ccccc4)CN3C(=O)c3ccccc3C(=O)c3ccc(F)cc3F)cc2)S1 (stereo not shown) [Compound B-8] |  | 1.2 nM

SMILES | IC50 | IC60
O=C(C=Cc1ccc(C=C2SC(=O)NC2=O)cc1)NCC1CC(SC(c2ccccc2)(c2ccccc2)c2ccccc2)CN1C(=O)c1ccccc1C(=O)c1ccc(F)cc1F (stereo not shown) [Compound B-9] |  | 0.6 nM
O=C(C=Cc1ccc(C=C2SC(=O)NC2=O)cc1)NCC1CC(SCc2c(-c3ccccc3)cccc2-c2ccccc2)CN1C(=O)c1ccccc1C(=O)c1ccc(F)cc1F (stereo not shown) [Compound B-10] |  | 5.6 nM
COc1ccc(C(SC2CC(CNC(=O)C=Cc3ccc(C=C4SC(=O)NC4=O)cc3)N(C(=O)c3ccccc3C(=O)c3ccc(F)cc3F)C2)(c2ccccc2)c2ccccc2)cc1 (stereo not shown) [Compound B-11] |  | 1.2 nM
COc1ccc(C(SC2CC(CNC(=O)C=Cc3ccc(C=C4SC(=O)NC4=O)cc3)N(C(=O)c3ccccc3C(=O)c3ccc(F)cc3F)C2)(c2ccccc2)c2ccc(OC)cc2)cc1 (stereo not shown) [Compound B-12] |  | 2 nM
Cc1ccc(C(SC2CC(CNC(=O)C=Cc3ccc(C=C4SC(=O)NC4=O)cc3)N(C(=O)c3ccccc3C(=O)c3ccc(F)cc3F)C2)(c2ccccc2)c2ccccc2)cc1 (stereo not shown) [Compound B-13] |  | 2 nM
O=C(C=Cc1ccc(C=C2SC(=O)NC2=O)cc1)NCC1CC(SC(c2ccc(F)cc2)(c2ccc(F)cc2)c2ccc(F)cc2)CN1C(=O)c1ccccc1C(=O)c1ccc(F)cc1F (stereo not shown) [Compound B-14] |  | 1.2 nM
Cc1ccccc1C(SC1CC(CNC(=O)C=Cc2ccc(C=C3SC(=O)NC3=O)cc2)N(C(=O)c2ccccc2C(=O)c2ccc(F)cc2F)C1)(c1ccccc1)c1ccccc1 (stereo not shown) [Compound B-15] |  | 1.2 nM
Cc1cccc(C(SC2CC(CNC(=O)C=Cc3ccc(C=C4SC(=O)NC4=O)cc3)N(C(=O)c3ccccc3C(=O)c3ccc(F)cc3F)C2)(c2ccccc2)c2ccccc2)c1 (stereo not shown) [Compound B-16] |  | 1 nM
O=C(C=Cc1ccc(C=C2SC(=O)NC2=O)cc1)NCC1CC(SC(c2ccc(Cl)cc2)(c2ccc(Cl)cc2)c2ccc(Cl)cc2)CN1C(=O)c1ccccc1C(=O)c1ccc(F)cc1F (stereo not shown) [Compound B-17] |  | 0.63 nM
CC(C)c1cccc(C(SC2CC(CNC(=O)C=Cc3ccc(C=C4SC(=O)NC4=O)cc3)N(C(=O)c3ccccc3C(=O)c3ccc(F)cc3F)C2)(c2ccccc2)c2ccccc2)c1 (stereo not shown) [Compound B-18] |  | 0.26 nM
O=C(C=Cc1ccc(C=C2SC(=O)NC2=O)cc1)NCC1CC(SC(c2ccccc2)(c2ccccc2)c2cccs2)CN1C(=O)c1ccccc1C(=O)c1ccc(F)cc1F (stereo not shown) [Compound B-19] |  | 2.9 nM
O=C(C=Cc1ccc(CC2SC(=O)NC2=O)cc1)NCC1CC(SC(c2ccccc2)(c2ccccc2)c2ccccc2)CN1C(=O)c1ccccc1C(=O)c1ccc(F)cc1F (stereo not shown) [Compound B-20] |  | 1.4 nM
Cc1cccc(C(SC2CC(CNC(=O)C=Cc3ccc(C=C4SC(=O)NC4=O)cc3)N(C(=O)c3ccccc3C(=O)c3ccc(F)cc3F)C2)(c2ccccc2)c2cccc(C)c2)c1 (stereo not shown) [Compound B-21] |  | 0.27 nM
Cc1cc(C)cc(C(SC2CC(CNC(=O)C=Cc3ccc(C=C4SC(=O)NC4=O)cc3)N(C(=O)c3ccccc3C(=O)c3ccc(F)cc3F)C2)(c2ccccc2)c2ccccc2)c1 (stereo not shown) [Compound B-22] |  | 0.37 nM
O=C(C=Cc1ccc(C=C2SC(=O)NC2=O)cc1)NCC1CC(SC(c2ccccc2)(c2ccccc2)c2ccccc2F)CN1C(=O)c1ccccc1C(=O)c1ccc(F)cc1F (stereo not shown) [Compound B-23] |  | 0.52 nM
O=C(C=Cc1ccc(C=C2SC(=O)NC2=O)cc1)NCC1CC(SC(c2ccccc2)(c2ccccc2)c2cccc(F)c2)CN1C(=O)c1ccccc1C(=O)c1ccc(F)cc1F (stereo not shown) [Compound B-24] |  | 0.36 nM
O=C(C=Cc1ccc(C=C2SC(=O)NC2=O)cc1)NCC1CC(SC(c2ccccc2)(c2ccccc2)c2ccc(F)cc2)CN1C(=O)c1ccccc1C(=O)c1ccc(F)cc1F (stereo not shown) [Compound B-25] |  | 0.43 nM
O=C1NC(=O)/C(=C/c2ccc(C(=O)NC[C@@H]3C[C@@H](OCc4ccccc4-c4ccccc4)CN3C(=O)c3ccccc3C(=O)c3ccc(F)cc3F)s2)S1 [Compound C-1] |  | 24 nM
O=C(/C=C/c1ccc(/C=C2\SC(=O)NC2=O)cc1)NC[C@@H]1C[C@@H](Oc2ccccc2C(c2ccccc2)c2ccccc2)CN1C(=O)c1ccccc1C(=O)c1ccc(F)cc1F [Compound C-2] |  | 3.8 nM
O=C1NC(=O)/C(=C/c2ccc(/C=C/CNC(=O)[C@@H]3C[C@@H](SC(c4ccccc4)(c4ccccc4)c4ccccc4)CN3C(=O)c3ccccc3C(=O)c3ccc(F)cc3F)cc2)S1 [Compound C-3] |  | 5.4 nM
